Measured values reported in patent publication US4735958A, “Trans-6-[2-[2-(substituted-phenyl)-3- (or 4-) heteroaryl-5-substituted-1H-pyrrol-1-yl]-ethyl]tetrahydro-4-hydroxy-2H-p yran-2-one inhibitors of cholesterol biosynthesis” (Warner-Lambert Company, priority 1986, dated 1988).

System: sterol synthesis
Experiment: CSI: inhibition of cholesterol biosynthesis, incorporation of cholesterol-^14 C-acetate into nonsaponifiable lipid by rat liver homogenate
Format: biochemical
Conditions: 50% inhibition of sterol synthesis over a one-hour period; liver homogenate of rats fed chow diet containing 5% cholestyramine for four days
Protocol: The ability of compounds of the present invention to inhibit the biosynthesis of cholesterol was measured by the procedure described by R. E. Dugan et al., Archiv. Biochem. Biophys., (1972), 152, 21-27. In this method, designated CSI, the level of HMG-CoA enzyme activity in standard laboratory rats is increased by feeding the rats a chow diet containing 5% cholestyramine for four days, after which the rats are sacrificed.
The rat livers are homogenized, and the incorporation of cholesterol-^14 C-acetate into nonsaponifiable lipid by the rat liver homogenate is measured. The micromolar concentration of compound required for 50% inhibition of sterol synthesis over a one-hour period is measured, and expressed as an IC50 value.

Row | IC50 | Structure (SMILES)
1 | 0.048 µM | CC(C)c1cc(-c2ccccn2)c(-c2ccc(F)cc2)n1CC[C@H]1C[C@H](O)CC(=O)O1 (racemic) [Compound 1, trans-(±)-6-[2-[2-(4-Fluorophenyl)-5-(1-methylethyl)-3-(2-pyridinyl)-1H-pyrrol-1-yl]ethyl]tetrahydro-4-hydroxy-2H-pyran-2-one]
2 | 0.013 µM | CC(C)c1cc(-c2ccncc2)c(-c2ccc(F)cc2)n1CC[C@H]1C[C@H](O)CC(=O)O1 (racemic) [Compound 3, trans-(±)-6-[2-[2-(4-Fluorophenyl)-5-(1-methylethyl)-3-(4-pyridinyl)-1H-pyrrol-1-yl]ethyl]tetrahydro-4-hydroxy-2H-pyran-2-one]
3 | 0.055 µM | CC(C)c1cc(-c2cccnc2)c(-c2ccc(F)cc2)n1CC[C@@H]1C[C@@H](O)CC(=O)O1 (relative stereo) [Compound 2, trans-(±)-6-[2-[2-[(4-Fluorophenyl)-5-(1-methylethyl)-3-(3-pyridinyl)-1H-pyrrol-1-yl]ethyl]tetrahydro-4-hydroxy-2H-pyran-2-one]
4 | 0.018 µM | CC[C@H](C)C(=O)O[C@H]1CCC=C2C=C[C@H](C)[C@H](CC[C@@H]3C[C@@H](O)CC(=O)O3)[C@H]21 [Compactin, reference compound]
